15 molecules from patent US10227350B2 (Gilead Sciences, Inc., priority 2016, dated 2019) can be followed below.

By IC50 is commonly meant the concentration that gives 50% inhibition.

The target of this test is PI3Kβ (Homo sapiens (Human), UniProt P42338). As to the kind of experiment: TR-FRET enzymatic activity assay, PI3Kβ. It is filed as biochemical. The note with it: 2× Km ATP, 2 μM PIP2, 30 minutes at 25° C., read-out: IC50-PIP-Beta. In short, it runs like this: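 Purified recombinant heterodimeric PI3Kβ; PIP3 formation read by TR-FRET as competition with fluorescent tracer for GRP-1 PH domain binding. Compounds incubated 30 min at 25 °C.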
PI3Kβ, sequence (P42338 whole entry, the tested form may be a part): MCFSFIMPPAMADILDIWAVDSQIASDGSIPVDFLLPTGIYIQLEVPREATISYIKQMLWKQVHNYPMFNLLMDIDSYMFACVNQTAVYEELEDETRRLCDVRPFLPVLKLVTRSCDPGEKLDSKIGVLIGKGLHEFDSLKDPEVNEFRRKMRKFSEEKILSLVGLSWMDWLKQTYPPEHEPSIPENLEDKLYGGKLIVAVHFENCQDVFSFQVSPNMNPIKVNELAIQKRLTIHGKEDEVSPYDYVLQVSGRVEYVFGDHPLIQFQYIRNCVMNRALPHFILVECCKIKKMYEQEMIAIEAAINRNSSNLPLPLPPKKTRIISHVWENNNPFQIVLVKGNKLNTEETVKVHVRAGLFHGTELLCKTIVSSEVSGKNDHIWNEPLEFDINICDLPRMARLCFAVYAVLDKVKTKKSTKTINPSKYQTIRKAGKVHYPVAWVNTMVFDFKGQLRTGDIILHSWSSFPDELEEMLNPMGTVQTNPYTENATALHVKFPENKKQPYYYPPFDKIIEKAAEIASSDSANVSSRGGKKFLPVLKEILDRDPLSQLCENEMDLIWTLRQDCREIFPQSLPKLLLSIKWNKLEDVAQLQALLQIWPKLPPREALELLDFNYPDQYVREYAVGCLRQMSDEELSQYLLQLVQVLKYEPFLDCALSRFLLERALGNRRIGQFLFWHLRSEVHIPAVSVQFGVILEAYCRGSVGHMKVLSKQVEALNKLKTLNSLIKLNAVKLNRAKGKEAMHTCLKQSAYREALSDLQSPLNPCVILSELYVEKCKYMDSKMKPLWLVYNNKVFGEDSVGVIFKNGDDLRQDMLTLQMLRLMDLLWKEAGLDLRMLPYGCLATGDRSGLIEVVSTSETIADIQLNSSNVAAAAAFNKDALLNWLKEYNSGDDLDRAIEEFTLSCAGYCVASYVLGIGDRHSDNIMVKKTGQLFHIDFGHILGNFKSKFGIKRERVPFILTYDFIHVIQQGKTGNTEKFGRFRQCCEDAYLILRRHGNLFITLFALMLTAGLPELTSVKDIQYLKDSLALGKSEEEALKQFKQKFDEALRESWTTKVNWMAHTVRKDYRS
PI3Kβ, sequence (P27986 whole entry partner, the tested form may be a part): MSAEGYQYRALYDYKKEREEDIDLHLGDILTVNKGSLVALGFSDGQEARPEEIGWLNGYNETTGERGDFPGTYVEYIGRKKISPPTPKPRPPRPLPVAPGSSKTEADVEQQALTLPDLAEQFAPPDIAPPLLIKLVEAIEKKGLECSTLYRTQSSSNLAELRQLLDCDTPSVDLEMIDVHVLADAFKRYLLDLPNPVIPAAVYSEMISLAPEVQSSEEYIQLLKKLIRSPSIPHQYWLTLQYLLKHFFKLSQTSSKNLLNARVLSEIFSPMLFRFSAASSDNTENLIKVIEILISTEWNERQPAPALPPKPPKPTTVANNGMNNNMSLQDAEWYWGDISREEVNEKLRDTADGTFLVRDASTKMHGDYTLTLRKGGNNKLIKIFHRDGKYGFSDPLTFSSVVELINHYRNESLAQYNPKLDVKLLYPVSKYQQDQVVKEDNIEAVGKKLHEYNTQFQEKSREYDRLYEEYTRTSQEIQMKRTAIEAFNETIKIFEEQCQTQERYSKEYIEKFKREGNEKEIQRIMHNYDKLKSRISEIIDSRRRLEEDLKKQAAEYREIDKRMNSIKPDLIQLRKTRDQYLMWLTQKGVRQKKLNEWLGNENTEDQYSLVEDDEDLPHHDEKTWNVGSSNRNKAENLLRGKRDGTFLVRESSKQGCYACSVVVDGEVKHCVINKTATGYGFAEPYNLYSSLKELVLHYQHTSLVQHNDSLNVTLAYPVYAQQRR
With `Cc1nc2c(-c3nnc[nH]3)cc(-c3ccnc(N)c3F)cc2n1-c1ccnc2c(Cl)ccc(Cl)c12` [Example 161, 4-(1-(5,8-dichloroquinolin-4-yl)-2-methyl-4-(4H-1,2,4-triazol-3-yl)-1H-benzo[d]imidazol-6-yl)-3-fluoropyridin-2-amine], the 50% inhibitory concentration (IC50) was 6 nM. On to `Cc1nc2c(-c3nnc[nH]3)cc(-c3ccnc(N)c3Cl)cc2n1-c1ccnc2c(F)ccc(F)c12` [Example 91, 3-chloro-4-[3-(5,8-difluoroquinolin-4-yl)-2-methyl-7-(4H-1,2,4-triazol-3-yl)benzimidazol-5-yl]pyridin-2-amine], for which the IC50 amounted to 19 nM. To `Cc1nc2c(-c3nnc[nH]3)cc(-c3ccnc(C#N)c3)cc2n1-c1ccnc2c(Cl)ccc(Cl)c12` (single isomer, unassigned) [Example 121, 4-(1-(5,8-dichloroquinolin-4-yl)-2-methyl-4-(4H-1,2,4-triazol-3-yl)-1H-benzo[d]imidazol-6-yl)picolinonitrile] belongs 1 nM; to `Nc1nccc(-c2cc(-c3nnc[nH]3)c3nc(C4CC4)n(-c4ccnc5c(Cl)ccc(F)c45)c3c2)c1F` [Example 85, 4-[3-(8-chloro-5-fluoroquinolin-4-yl)-2-cyclopropyl-7-(4H-1,2,4-triazol-3-yl)benzimidazol-5-yl]-3-fluoropyridin-2-amine], 3 nM. On to `Cc1nc2c(-c3nnc[nH]3)cc(-c3ccncc3)cc2n1-c1ccnc2c(F)ccc(F)c12` (single isomer, unassigned) [Example 140, 5,8-difluoro-4-(2-methyl-6-(pyridin-4-yl)-4-(4H-1,2,4-triazol-3-yl)-1H-benzo[d]imidazol-1-yl)quinoline], for which the IC50 stood at 540 nM. The result for `Nc1cc(-c2cc(-c3nnc[nH]3)c3nc(C4COC4)n(-c4ccnc5c(Cl)ccc(F)c45)c3c2)ccn1` [Example 68, 4-[3-(8-chloro-5-fluoroquinolin-4-yl)-2-(oxetan-3-yl)-7-(4H-1,2,4-triazol-3-yl)benzimidazol-5-yl]pyridin-2-amine] reads 35 nM; that for `Cc1nc2c(-c3nnc[nH]3)cc(-c3ccnc(N)c3F)cc2n1-c1ccnc2cc(F)cc(F)c12` (single isomer, unassigned) [Example 117], 4 nM. On to `Cc1nc2c(-c3nnc[nH]3)cc(-c3ccnc(N)n3)cc2n1-c1ccnc2c(Cl)cccc12` [Example 56, 4-[3-(8-chloroquinolin-4-yl)-2-methyl-7-(4H-1,2,4-triazol-3-yl)benzimidazol-5-yl]pyrimidin-2-amine], for which the IC50 came out at 9 nM. Consider `Nc1nccc(-c2cc(-c3nnc[nH]3)c3nc(C4CC4)n(-c4ccnc5c(Cl)cccc45)c3c2)c1F` [Example 79, 4-[3-(8-chloroquinolin-4-yl)-2-cyclopropyl-7-(4H-1,2,4-triazol-3-yl)benzimidazol-5-yl]-3-fluoropyridin-2-amine], for which the IC50 was found to be 8 nM.

As to `Cc1nc2c(-c3nnc[nH]3)cc(-c3ccnc(C#N)c3)cc2n1-c1ccnc2c(Cl)cccc12` (single isomer, unassigned) [Example 129, 4-(1-(8-chloroquinolin-4-yl)-2-methyl-4-(4H-1,2,4-triazol-3-yl)-1H-benzo[d]imidazol-6-yl)picolinonitrile], the IC50 stood at 3 nM. To `Cc1nc2c(-c3nnc[nH]3)cc(-c3ccnc(C#N)c3)cc2n1-c1ccnc2c(Cl)cccc12` (single isomer, unassigned) [Example 130, 4-(1-(8-chloroquinolin-4-yl)-2-methyl-4-(4H-1,2,4-triazol-3-yl)-1H-benzo[d]imidazol-6-yl)picolinonitrile] belongs 57 nM; to `Cc1cc(-n2c(C)nc3c(-c4nnc[nH]4)cc(-c4ccncc4)cc32)c2cccc(Cl)c2n1` [Example 32, 8-chloro-2-methyl-4-[2-methyl-6-pyridin-4-yl-4-(4H-1,2,4-triazol-3-yl)benzimidazol-1-yl]quinoline], 6 nM. `Cc1cc(-c2cc(C(N)=O)c3nc(C)n(-c4ccnc5c(Cl)cccc45)c3c2)ccn1` [Example 15, 1-(8-chloroquinolin-4-yl)-2-methyl-6-(2-methylpyridin-4-yl)benzimidazole-4-carboxamide]: the IC50 came to 150 nM. `Cc1nc2c(-c3nnc[nH]3)cc(-c3ccnc(N)c3F)cc2n1-c1ccnc2c(Cl)cccc12` [Example 80, 4-(1-(8-chloroquinolin-4-yl)-2-methyl-4-(4H-1,2,4-triazol-3-yl)-1H-benzo[d]imidazol-6-yl)-3-fluoropyridin-2-amine]: the IC50 was determined as 2 nM. To `Cc1nc2c(-c3nnc[nH]3)cc(-c3ccnc(F)c3)cc2n1-c1ccnc2c(F)ccc(F)c12` (single isomer, unassigned) [Example 134, 5,8-difluoro-4-(6-(2-fluoropyridin-4-yl)-2-methyl-4-(4H-1,2,4-triazol-3-yl)-1H-benzo[d]imidazol-1-yl)quinoline] belongs 400 nM.
